Measured values taken from publication PMC3274540 (PLoS ONE, 2012).

Key:
ERα = target: T1, ERα (Homo sapiens, UniProt P03372); experiment: fluorescence polarization competition binding assay
T1 construct: gene ESR1; recombinant
T1 sequence (P03372 1-595): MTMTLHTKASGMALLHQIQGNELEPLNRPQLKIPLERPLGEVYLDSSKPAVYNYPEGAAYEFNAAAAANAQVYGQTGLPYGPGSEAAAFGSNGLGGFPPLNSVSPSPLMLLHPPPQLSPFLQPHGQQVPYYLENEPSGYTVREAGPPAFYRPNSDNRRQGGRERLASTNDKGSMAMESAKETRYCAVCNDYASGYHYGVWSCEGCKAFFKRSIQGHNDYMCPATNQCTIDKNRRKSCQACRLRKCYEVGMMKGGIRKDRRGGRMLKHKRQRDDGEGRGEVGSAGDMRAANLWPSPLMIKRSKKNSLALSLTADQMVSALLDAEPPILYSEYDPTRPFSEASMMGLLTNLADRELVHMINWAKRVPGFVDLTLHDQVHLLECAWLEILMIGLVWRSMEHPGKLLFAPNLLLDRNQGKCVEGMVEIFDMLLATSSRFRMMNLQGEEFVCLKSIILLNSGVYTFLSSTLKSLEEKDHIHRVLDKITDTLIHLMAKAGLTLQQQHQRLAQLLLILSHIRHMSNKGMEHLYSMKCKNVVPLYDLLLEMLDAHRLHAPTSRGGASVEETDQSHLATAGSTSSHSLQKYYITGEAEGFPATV

ERβ = target: T2, ERβ (Homo sapiens, UniProt Q92731); experiment: as above
T2 construct: gene ESR2; recombinant
T2 sequence (Q92731 whole entry): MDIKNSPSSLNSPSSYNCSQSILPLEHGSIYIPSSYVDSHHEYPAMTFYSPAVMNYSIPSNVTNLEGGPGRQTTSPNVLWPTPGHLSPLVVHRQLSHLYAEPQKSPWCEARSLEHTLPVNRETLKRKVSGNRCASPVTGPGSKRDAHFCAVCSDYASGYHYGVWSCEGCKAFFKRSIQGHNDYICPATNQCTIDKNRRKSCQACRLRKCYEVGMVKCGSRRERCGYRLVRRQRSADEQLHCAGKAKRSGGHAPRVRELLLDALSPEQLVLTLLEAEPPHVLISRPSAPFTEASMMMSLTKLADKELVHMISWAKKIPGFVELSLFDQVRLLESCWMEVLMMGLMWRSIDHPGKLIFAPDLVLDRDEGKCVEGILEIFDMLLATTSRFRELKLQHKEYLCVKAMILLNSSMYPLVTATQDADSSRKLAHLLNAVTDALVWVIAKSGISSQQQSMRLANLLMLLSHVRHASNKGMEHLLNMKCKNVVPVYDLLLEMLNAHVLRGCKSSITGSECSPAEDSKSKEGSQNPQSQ

Row | SMILES | IC50 (ERα) | IC50 (ERβ)
1 | COc1ccc([C@@H](C)C(=O)c2ccc(O)cc2O)cc1 [angolensin, 1-(2,4-dihydroxyphenyl)-2-(4-methoxyphenyl)propan-1-one] | 2.2 µM | 4.7 µM
2 | O=c1cc(-c2ccc(O)cc2)oc2cc(O[C@@H]3O[C@H](CO)[C@@H](O)[C@H](O)[C@H]3O)cc(O)c12 [cosmosiin, 5-hydroxy-2-(4-hydroxyphenyl)-7-[(2S,3R,4S,5S,6R)-3,4,5-trihydroxy-6-(hydroxymethyl)oxan-2-yl]oxychromen-4-one] | 15.9 µM | 3.3 µM
